Laboratory results from a melting point compilation (Tetko et al.; mined from patent text by program, amines drawn as free bases though some values may be those of a salt).

SMILES	melting point [°C]
CCOc1ccc2[nH]c(=O)n(C3CCCCC3)c2c1	203
O=C(CNS(=O)(=O)c1ccc2ccccc2c1)NCCNC(=O)C1CCN(c2ccncc2)CC1	107 to 109
CC(=O)Nc1cccc(-c2csc3nc(C45CC6CC(CC(C6)C4)C5)cn23)c1	98 to 100
C=CCOC(=O)NCC(=N)NO	91 to 92
COc1ccc(C(=O)Nc2ccc(Cl)c(Cl)c2)cc1Nc1cccc(C(F)(F)F)c1	154 to 155
Cc1c(CC2CCc3cc4ccccc4n3C2=O)ncn1Cc1ccccc1 (stereo unspecified)	130 to 140
CN1CCN(C(=O)NC(CS)Cc2ccccc2)CC1 (single isomer, unassigned; (-))	68 to 70
CCCCCCC(C)(C)c1cc(OC)c(C2=C[C@@]3(C)CC[C@@H]2C3(C)C)c(OC)c1	32 to 33
C[C@@H]([C@@H](O)c1ccc(OCc2ccccc2)cc1)N1CCC(O)(c2ccccc2)CC1	158 to 161
N#CC1=C(C2CC2)Nc2n[nH]cc2C1c1cccc(Cl)c1Cl (stereo unspecified)	> 250
CC1(C)Nc2ccccc2-c2c(N)cnn21	181 to 183
NC(=O)CC(O)(Cn1cncn1)c1ccc(Cl)cc1Cl (stereo unspecified)	144 to 145
CN(C)CC(=O)Nc1nc(-c2ccco2)c(C(=O)C2CCOCC2)s1	129 to 130
CC(=O)NCC=C(c1ccc(-c2ccccc2)cc1)c1ccc(-c2ccccc2)cc1	246 to 249
COc1ccc(C(=O)C2CCCCC2C(=O)O)cc1OC (stereo unspecified)	171 to 175
CCCc1c(OCCOCCOCCOCCOc2ccc3ccc(OCC(=O)O)cc3c2C(C)=O)ccc(C(C)=O)c1O	57 to 58
O=C(Nc1n[nH]c2cc(Cl)ccc12)c1cc(Cl)cc(Cl)c1	240
Cc1noc(NS(=O)(=O)c2ccc(NCC(=O)O)cc2-c2ccc(CC(C)C)cc2)c1C	73 to 78

SMILES	melting point [°C]
CCCCCc1ccc(OC(=O)Oc2ccc([N+](=O)[O-])cc2)cc1	67 to 69
Cc1nc(N2CCN(Cc3ccc(C(F)F)o3)C2=O)sc1C(=O)NCc1cccnc1	142 to 143
C#CC(C)(C)N1CCC(N2CCN(CCCN3CCCCC3)C2=C(C#N)C#N)CC1	112 to 115
CN(C)c1nsc2nc3ccccc3n12	102 to 104
COC(=O)CCCC(Cl)C1SCC2NC(=O)N(Cc3ccccc3)C21 (stereo unspecified)	141 to 142
COCc1c[nH]c2c([N+](=O)[O-])cc(C)cc2c1=O	> 240
CSc1sc(-c2ccn(C)n2)c2c1C(=O)C(=CO)C(C)(C)C2	145 to 148
CCOc1cc(C=C2SC(=S)N(N(C)C)C2=O)ccc1O	194 to 198
CCCCCCCC1=CC(=O)N(Cc2ccccc2)C1(O)CBr (stereo unspecified)	94 to 96
ON=C(c1ccc(Cl)cc1)c1cccc2nc(N[C@@H]3CCc4ccccc43)ccc12	194
COC(=O)C=C1SC(Nc2c(Cl)cccc2Cl)=NC1=O	189 to 190
COC1CCCC2=C(O)C3=C(C(=O)c4ccc(C(C)=O)cc4C3)C(O)C21 (stereo unspecified)	223 to 226
CC(C)N1CCC(Nc2cccnc2)CC1	101
Cc1nc2c(N)nc3c(c2n1CCCCCS(C)(=O)=O)CCCC3	172 to 174
CCCCc1ncc(/C=C2\C(=O)NC(=O)N2Cc2cccs2)n1Cc1ccc(C(=O)OC)cc1	164 to 165
Brc1ccc(-c2cn([C@H]3CN4CCC3CC4)nn2)o1	144
C(=C1c2ccccc2-c2ccccc21)c1nc(COc2ccc(CCCn3ccnc3)cc2)co1	116 to 117
CC(C)(C)NC(=O)CCCCl	62.5 to 64

The next lines start with the values.

melting point [°C]	SMILES
112 to 114	Cc1ccccc1C(=O)Nc1ccc(C(=O)N2Cc3ccccc3Cc3ccccc32)c(C)c1
279 to 281	CN(Cc1cccc2c1C(=O)N(C1CCC(=O)NC1=O)C2=O)C(=O)Nc1ccc(Cl)cc1 (stereo unspecified)
137 to 138	CCC1CCCCN1C(=O)Nc1ccccc1CCc1cc(C(C)(C)C)c(O)c(C(C)(C)C)c1 (stereo unspecified)
220	O=C(NCc1ccccn1)Nc1nc(C(=O)O)cs1
121 to 122	O=C(O)C(=O)c1ccc(OCCCCCCOc2ccccc2)cc1
176 to 178	COc1ccc(S(=O)(=O)Nc2cccnc2Nc2ccccc2)c(OC)c1
148 to 150	Fc1ccc(-c2cc(-c3ccc(F)cc3)nc(Nc3ccc(OC(F)(F)F)cc3)n2)cc1
101 to 102	COC(=O)c1cc2cccnc2cc1C(=O)OC
140 to 141	CCO/N=C(/CC)c1ccc(Cl)c2nc3n(c12)CCCN3c1ccc(Cl)cc1Cl
360 to 361	NC(=O)c1nc(-c2cccc(O)c2)nc2c1[nH]c(=O)n2C1CCCC1
153	Cc1ccn(-c2nc(Cl)c([N+](=O)[O-])s2)n1
220 to 221	CCCOc1nsc(NC(=O)C(C)C)c1C#N
183 to 184	C[Si](C)(C)C#Cc1ccc(-n2c(-c3ccccc3)ccc2-c2ccccc2)cc1
51 to 53	C[C@@H]1CCCC[C@H]1C(=O)O (relative stereo)
> 280	O=C(O)c1ccc2oc3ccccc3c(=O)c2c1
242 to 243	CC1(C)CC(c2c[nH]c(-c3ccc(F)cc3)c2-c2ccncc2)CC(C)(C)N1
116 to 118	CC(=O)NCC1CC1c1cccn2nc(C)nc12 (stereo unspecified)
88 to 90	O=C(Nc1cc(C(F)(F)F)cc(C(F)(F)F)c1)C1C(=O)C2CCC(C2)C1=O (stereo unspecified)

melting point [°C]	SMILES
155 to 157	COc1cc(C2=CCCCC2)c(Cl)cc1C(=O)N1Cc2ccc(C(=O)N(C)CC(O)CO)n2Cc2ccccc21 (stereo unspecified)
93 to 94	N#CC(=CNC1CC1)C(=O)c1ccc(Cl)cc1Cl
252 to 260	CCNC(=O)c1ccc(N2CCN(Cc3cnc4c(c3)[nH]c(=O)n3cccc43)CC2)cc1
175	COc1cc(OC)nc(O[C@@H]2CCCC[C@H]2C(=O)NS(=O)(=O)c2ccccc2)n1 (relative stereo)
140 to 142	O=C(Nc1ccc(OCc2ccccc2)cc1)C(Br)CCBr (racemic)
217 to 219	Cc1[nH]c(=S)n(Nc2ccccc2)c1C
244 to 247	CCCOc1ccc(-c2ccc3c(c2)C=C(C(=O)Nc2ccc(CN(C)C4CCOCC4)cc2)CCS3(=O)=O)cc1
198 to 200	O=S(=O)(Nc1cccc(Br)c1)c1cc(S(=O)(=O)Nc2cccc(Br)c2)c2cc(O)ccc2c1
87.9 to 89.4	CCc1ccc(OCC(=O)N(Cc2nc(-c3cccnc3)no2)C(C)C)cc1
189 to 190	CN1CCC(=C2c3ccccc3C=Cc3ccc(Br)cc32)CC1
176 to 179	O=C(NCCCCCC(=O)c1ncco1)c1cc2ccccc2[nH]1
192 to 194	CSC(=O)N(C)c1nnc(-c2cccnc2)s1
229 to 230	CCc1nc2c(N)nc3cc(OCc4cccc(Cl)n4)ccc3c2s1
331 to 332	O=C(O)c1ccc(N2C(=O)c3ccc([N+](=O)[O-])cc3C2=O)cc1
188 to 190	Oc1cccc2c1CCCC2n1cc[nH]c1=S (stereo unspecified)
> 300	O=Cc1cc(-c2ccc(O)c(O)c2)c2cc(O)c(O)cc2c1O
86 to 92	Nc1cc(Oc2ccc(C(F)(F)F)cc2Cl)ccc1[N+](=O)[O-]
